Measured values: ChEMBL document CHEMBL1152592, “Design, synthesis and biological evaluations of novel 7-[3-(1-aminocycloalkyl)pyrrolidin-1-yl]-6-desfluoro-8-methoxyquinolones with potent antibacterial activity against multi-drug resistant Gram-positive bacteria” (Bioorg Med Chem, 2009)
Values after ≈ are worked out from the molar mass of the structure shown.

Columns and labels:
[1] = system: Mus musculus; experiment: Toxicity in Slc:ddY mouse assessed as micronucleated reticulocyte in blood at 150 mg/kg, iv after 48 hrs of treatment by fluorescence microscopy; assay type: organism-based; design: dose 150 mg/kg, route intravenous; details: in vivo
[2] = system: Staphylococcus aureus; experiment: Selectivity ratio of IC50 for Staphylococcus aureus DNA topoisomerase 4 Ser80Phe mutant to IC50 for Staphylococcus aureus wild type DNA topoisomerase 4
[3] = system: Klebsiella pneumoniae; experiment: Antibacterial activity against Klebsiella pneumoniae type 2 after 18 hrs by twofold microbroth dilution method; assay type: functional; details: type 2, 18 h
[4] = Oral bioavailability in cynomolgus monkey serum at 20 mg/kg; assay type: ADME, organism-based, Macaca fascicularis
[5] = biological target: DNA gyrase subunit A (Staphylococcus aureus, UniProt P20831, S84L); experiment: Inhibition of Staphylococcus aureus DNA gyrase Ser84Leu mutant
[6] = Cmin in Crj:CD rat serum at 20 mg/kg, iv after 5 mins; assay type: ADME, organism-based; design: dose 20 mg/kg, route intravenous; details: read-out: Cmin
[7] = AUC (0 to 6 hrs) in Crj:CD rat liver at 20 mg/kg, iv; assay type: ADME, organism-based; design: time < 6 hr, dose 20 mg/kg, route intravenous
[8] = AUC (0 to 6 hrs) in Crj:CD rat kidney at 20 mg/kg, iv; assay type: ADME, organism-based; design: time < 6 hr, dose 20 mg/kg, route intravenous
[9] = Half life in Crj:CD rat lung at 20 mg/kg, iv; assay type: ADME, organism-based; design: dose 20 mg/kg, route intravenous
[10] = system: Staphylococcus epidermidis; experiment: Antibacterial activity against Staphylococcus epidermidis 56500 after 18 hrs by twofold microbroth dilution method; assay type: functional; details: Staphylococcus epidermidis, 56500, 18 h
[11] = AUC (0 to 6 hrs) in cynomolgus monkey serum at 20 mg/kg, iv; assay type: ADME, organism-based, Macaca fascicularis, Plasma; design: time < 6 hr, dose 20 mg/kg, route intravenous
[12] = system: Enterococcus faecalis; experiment: Antibacterial activity against vancomycin-resistant Enterococcus faecalis after 18 hrs by twofold microbroth dilution method; assay type: functional
[13] = system: Enterococcus faecalis; experiment: Antibacterial activity against Enterococcus faecalis ATCC 19433 after 18 hrs by twofold microbroth dilution method; assay type: functional; details: ATCC19433, 18 h
[14] = system: Enterococcus faecium; experiment: Antibacterial activity against vancomycin-resistant Enterococcus faecium after 18 hrs by twofold microbroth dilution method; assay type: functional
[15] = Half life in Crj:CD rat serum at 20 mg/kg, po; assay type: ADME, organism-based; design: dose 20 mg/kg, route oral
[16] = Oral bioavailability in Crj:CD rat serum at 20 mg/kg; assay type: ADME, organism-based
[17] = AUC (0 to 6 hrs) in Crj:CD rat lung at 20 mg/kg, iv; assay type: ADME, organism-based; design: time < 6 hr, dose 20 mg/kg, route intravenous
[18] = system: Staphylococcus aureus; experiment: Antibacterial activity against Staphylococcus aureus FDA 209-P after 18 hrs by twofold microbroth dilution method; assay type: functional
[19] = Half life in cynomolgus monkey serum at 20 mg/kg, iv; assay type: ADME, organism-based, Macaca fascicularis; design: dose 20 mg/kg, route intravenous
[20] = system: Pseudomonas aeruginosa; experiment: Antibacterial activity against Pseudomonas aeruginosa PAO1 after 18 hrs by twofold microbroth dilution method; assay type: functional; details: PAO1, 18 h
[21] = system: Escherichia coli; experiment: Antibacterial activity against Escherichia coli NIHJ after 18 hrs by twofold microbroth dilution method; assay type: functional
[22] = Cmin in Crj:CD rat kidney at 20 mg/kg, iv after 5 mins; assay type: ADME, organism-based; design: dose 20 mg/kg, route intravenous; details: read-out: Cmin
[23] = Ratio of AUC (0 to 6 hrs) kidney to serum in Crj:CD rat […] at 20 mg/kg, iv; assay type: ADME, organism-based; design: dose 20 mg/kg, route intravenous
[24] = Ratio of AUC (0 to 6 hrs) lung to serum in Crj:CD rat lung at 20 mg/kg, iv; assay type: ADME, organism-based; design: dose 20 mg/kg, route intravenous
[25] = Half life in Crj:CD rat kidney at 20 mg/kg, iv; assay type: ADME, organism-based; design: dose 20 mg/kg, route intravenous
[26] = AUC (0 to 6 hrs) in Crj:CD rat serum at 20 mg/kg, iv; assay type: ADME, organism-based; design: time < 6 hr, dose 20 mg/kg, route intravenous
[27] = system: Staphylococcus aureus; experiment: Selectivity ratio of IC50 for Staphylococcus aureus DNA gyrase Ser84Leu mutant to IC50 for Staphylococcus aureus wild type DNA gyrase
[28] = system: Staphylococcus aureus; experiment: Antibacterial activity against levofloxacin, methicillin-resistant Staphylococcus aureus after 18 hrs by twofold microbroth dilution method; assay type: functional
[29] = system: Streptococcus pneumoniae; experiment: Antibacterial activity against Streptococcus pneumoniae J-24 after 18 hrs by twofold microbroth dilution method; assay type: functional; details: J-24, 18 h
[30] = AUC (0 to 6hrs) in Crj:CD rat serum at 20 mg/kg, po; assay type: ADME, organism-based; design: time < 6 hr, dose 20 mg/kg, route oral
[31] = Inhibition of Staphylococcus aureus DNA topoisomerase 4 Ser80Phe mutant
[32] = Half life in cynomolgus monkey serum at 20 mg/kg, po; assay type: ADME, organism-based, Macaca fascicularis; design: dose 20 mg/kg, route oral
[33] = Cmin in Crj:CD rat lung at 20 mg/kg, iv after 5 mins; assay type: ADME, organism-based; design: dose 20 mg/kg, route intravenous; details: read-out: Cmin
[34] = Aqueous […] of the compound; assay type: physicochemical; details: aqueous (not further specified)
[35] = system: Streptococcus pneumoniae; experiment: Antibacterial activity against penicillin-intermediate resistant Streptococcus pneumoniae after 18 hrs by twofold microbroth dilution method; assay type: functional
[36] = biological target: DNA gyrase (Staphylococcus aureus, UniProt P0A0K8+P20831); experiment: Inhibition of Staphylococcus aureus wild type DNA gyrase; assay type: protein-complex assay
[37] = system: Streptococcus mitis; experiment: Antibacterial activity against Streptococcus mitis IID685 after 18 hrs by twofold microbroth dilution method; assay type: functional; details: IID685, 18 h
[38] = system: Streptococcus pyogenes; experiment: Antibacterial activity against Streptococcus pyogenes G-36 after 18 hrs by twofold microbroth dilution method; assay type: functional; details: G-36, 18 h
[39] = Cmax in cynomolgus monkey serum at 20 mg/kg, po; assay type: ADME, organism-based, Macaca fascicularis; design: dose 20 mg/kg, route oral
[40] = system: Mus musculus; experiment: Toxicity in Slc:ddY mouse at 100 mg/kg, iv; assay type: organism-based; design: dose 100 mg/kg, route intravenous; details: in vivo
[41] = Cmax in Crj:CD rat serum at 20 mg/kg, po; assay type: ADME, organism-based; design: dose 20 mg/kg, route oral
[42] = Half life in Crj:CD rat liver at 20 mg/kg, iv; assay type: ADME, organism-based; design: dose 20 mg/kg, route intravenous
[43] = AUC (0 to 6 hrs) in cynomolgus monkey serum at 20 mg/kg, po; assay type: ADME, organism-based, Macaca fascicularis, Plasma; design: time < 6 hr, dose 20 mg/kg, route oral
[44] = Ratio of AUC (0 to 6 hrs) liver to serum in Crj:CD rat […] at 20 mg/kg, iv; assay type: ADME, organism-based; design: dose 20 mg/kg, route intravenous
[45] = Half life in Crj:CD rat serum at 20 mg/kg, iv; assay type: ADME, organism-based; design: dose 20 mg/kg, route intravenous
[46] = Inhibition of Staphylococcus aureus wild type DNA topoisomerase 4
[47] = Cmin in Crj:CD rat liver at 20 mg/kg, iv after 5 mins; assay type: ADME, organism-based; design: dose 20 mg/kg, route intravenous; details: read-out: Cmin
[48] = system: Staphylococcus aureus; experiment: Antibacterial activity against ciprofloxacin, methicillin-resistant Staphylococcus aureus after 18 hrs by twofold microbroth dilution method; assay type: functional
[49] = Cmax in cynomolgus monkey serum at 20 mg/kg, iv; assay type: ADME, organism-based, Macaca fascicularis; design: dose 20 mg/kg, route intravenous
[50] = system: Mus musculus; experiment: Toxicity in Slc:ddY mouse assessed as micronucleated reticulocyte in blood at 50 mg/kg, iv after 48 hrs of treatment by fluorescence microscopy; assay type: organism-based; design: dose 50 mg/kg, route intravenous; details: in vivo
[51] = system: Mus musculus; experiment: Toxicity in Slc:ddY mouse at 150 mg/kg, iv; assay type: organism-based; design: dose 150 mg/kg, route intravenous; details: in vivo
[52] = system: Mus musculus; experiment: Toxicity in Slc:ddY mouse at 50 mg/kg, iv; assay type: organism-based; design: dose 50 mg/kg, route intravenous; details: in vivo

Structure (SMILES): COc1c(N2CC[C@@H](C3(N)CC3)C2)ccc2c(=O)c(C(=O)O)cn([C@@H]3C[C@@H]3F)c12
- Activity [1]: Toxic
- Ratio IC50 [2]: 5.7
- MIC [3]: 0.05 mg/L (≈ 0.125 µM)
- bioavailability [4]: 58.2%
- IC50 [5]: 19.5 µM
- concentration at 5 min [6]: 11 µg/mL
- AUC(0-t) at 6 h [7]: 66.1 µg·h/mL
- AUC(0-t) at 6 h [8]: 64.4 µg·h/mL
- half-life [9]: 1.2 h
- MIC [10]: 0.006 mg/L (≈ 0.0149 µM)
- AUC(0-t) at 6 h [11]: 64.4 µg·h/mL
- MIC50 [12]: 0.25 mg/L (≈ 0.623 µM)
- MIC90 [12]: 0.5 mg/L (≈ 1.25 µM)
- MIC [13]: 0.025 mg/L (≈ 0.0623 µM)
- MIC50 [14]: 0.25 mg/L (≈ 0.623 µM)
- MIC90 [14]: 2 mg/L (≈ 4.98 µM)
- half-life [15]: 1.3 h
- bioavailability [16]: 67.4%
- AUC(0-t) at 6 h [17]: 45.5 µg·h/mL
- MIC [18]: ≤ 0.003 mg/L
- half-life [19]: 4.4 h
- MIC [20]: 0.39 mg/L (≈ 0.972 µM)
- MIC [21]: ≤ 0.003 mg/L
- concentration at 5 min [22]: 47.2 µg/mL
- Kp [23]: 4.4
- Kp [24]: 3.1
- half-life [25]: 1.4 h
- AUC(0-t) at 6 h [26]: 14.5 µg·h/mL
- Ratio IC50 [27]: 9.35
- MIC50 [28]: 0.12 mg/L (≈ 0.299 µM)
- MIC80 [28]: 1 mg/L (≈ 2.49 µM)
- MIC90 [28]: 1 mg/L (≈ 2.49 µM)
- MIC [29]: 0.006 mg/L (≈ 0.0149 µM)
- AUC(0-t) at 6 h [30]: 9.8 µg·h/mL
- IC50 [31]: 1.76 mg/L (≈ 4.38 µM)
- half-life [32]: 6 h
- concentration at 5 min [33]: 32.4 µg/mL
- solubility [34]: 0.48 mg/mL (≈ 1200 µM)
- MIC50 [35]: 0.03 mg/L (≈ 0.0747 µM)
- MIC90 [35]: 0.03 mg/L (≈ 0.0747 µM)
- IC50 [36]: 2.08 µM
- MIC [37]: 0.003 mg/L (≈ 0.00747 µM)
- MIC [38]: 0.006 mg/L (≈ 0.0149 µM)
- Cmax [39]: 3.7 µg/mL
- Activity [40]: Non-toxic
- Cmax [41]: 6.7 µg/mL
- half-life [42]: 1.1 h
- AUC(0-t) at 6 h [43]: 37.5 µg·h/mL
- Kp [44]: 4.6
- half-life [45]: 1.2 h
- IC50 [46]: 0.309 mg/L (≈ 0.77 µM)
- concentration at 5 min [47]: 48.5 µg/mL
- MIC50 [48]: 0.06 mg/L (≈ 0.149 µM)
- MIC90 [48]: 0.5 mg/L (≈ 1.25 µM)
- Cmax [49]: 12.3 µg/mL

Structure (SMILES): COc1c(N2CC[C@@H]([C@H](C)N)C2)ccc2c(=O)c(C(=O)O)cn(C3CC3)c12
- MIC [3]: 0.1 mg/L (≈ 0.269 µM)
- MIC [10]: 0.006 mg/L (≈ 0.0162 µM)
- MIC [13]: 0.05 mg/L (≈ 0.135 µM)
- Activity [50]: Toxic
- MIC [18]: ≤ 0.003 mg/L
- MIC [20]: 0.2 mg/L (≈ 0.538 µM)
- MIC [21]: 0.012 mg/L (≈ 0.0323 µM)
- Activity [51]: Toxic
- MIC50 [28]: 0.5 mg/L (≈ 1.35 µM)
- MIC80 [28]: 8 mg/L (≈ 21.5 µM)
- MIC90 [28]: 8 mg/L (≈ 21.5 µM)
- MIC [29]: ≤ 0.003 mg/L
- solubility [34]: > 10 mg/mL
- MIC [37]: 0.006 mg/L (≈ 0.0162 µM)
- MIC [38]: 0.012 mg/L (≈ 0.0323 µM)
- Activity [40]: Toxic
- Activity [52]: Non-toxic
